Assay results taken from patent US20080064722A1, “AGENT FOR PROMOTING INTERFERON-Y PRODUCTION” (KABUSHIKI KAISHA HAYAHIBARA SEIBUTSU KAGAKU KENKYU, priority 2001, published 2008).

Columns and labels:
[1] = LD50 of the cyanine dye; assay type: in vivo
[2] = test system: mice; assay: Observation of the mice administered with the cyanine dye (death, condition, side effects); assay type: in vivo
Protocol: (§1) Twenty-five of 10-week-old BALB/c female mice were divided into five groups. A powder consisting of one part by weight of “NK-4”, a cyanine dye represented by Chemical Formula 1 produced by Hayashibara Biochemical Laboratories, Inc., Okayama, Japan, and 200 parts by weight of sodium bicarbonate was prepared. Then, the mixture was dissolved in physiological saline to give a concentration of 20 mg/ml. Successively, the solution was diluted to give different concentrations as indicated in Table 1 with 20 mg/ml of sodium bicarbonate aqueous solution for administration to the mice. The dilutions were orally administered to the mice in four groups once a day over three days.

[3] = test system: IFN-γ production by immunocompetent cells (spleen cells); assay: Effect of cyanine dye on IFN-γ production (ex vivo: oral dosing of mice, spleen cells cultured with lipopolysaccharide, ELISA); assay type: in vivo, BALB/c female mice; settings: for IFN-γ Production: once a day over three days, spleen cells 1×10^6 cells/ml, 5 μg/ml lipopolysaccharide, 72 hours
Protocol: The following explains the effect of the cyanine dyes on INF-γ production by immunocompetent cells based on ex vivo experiment using mice as an experimental animal.
as §1
Spleens were respectively extracted from the mice in each group, minced and suspended in a usual manner in the art to give the spleen cell suspension. The cell suspensions were collected and diluted in RPMI medium (pH 7.2), supplemented with 10% (v/v) calf serum […] and containing 10 mM HEPES (N-2-hydroxyethylpiperadine-N′-2-ethanesulfonic acid) and 5 μg/ml lipopolysaccharide, to give a concentration of 1×10^6 cells/ml, and were cultured at 37° C. for 72 hours. IFN-γ was measured by conventional enzyme-linked immunosorbent assay (ELISA). As a control, the mice of the group with no cyanine dye were treated similarly as above. The measured values of IFN-γ were converted into international units (IU) with reference to the standard mouse IFN-γ (Gg02-901-533) obtained form National institute of Health, U.S.A., as an IFN-γ standard.

SMILES: CCCCCCCN1C(C)=CS\C1=C/C=C(/C=C/c1scc(C)[n+]1CCCCCCC)c1scc(C)[n+]1CCCCCCC [Chemical Formula 2]
- LD50 ([1]; intraperitoneal administration): 54 mg/kg body weight
- LD50 ([1]; oral administration): 1.5 g/kg body weight

SMILES: CCN1C=CC(=CC=C(C=Cc2cc[n+](CC)c3ccccc23)c2cc[n+](CC)c3ccccc23)c2ccccc21 [NK-4]
- Serious side effect such as symptom of poisoning ([2]; directly applied to living bodies): did not cause any serious side effect
- Condition of mice (hair complexion, appetite, motility) ([2]; mouse, in vivo, po): good conditions of hair complexion, appetite, and motility
- Death of mice ([2]; oral, 1 to 1,000 μg/kg body weight, once a day over three days): did not die
- IFN-γ Production ([3]; dose 1 μg/kg body weight): 1.2 IU/ml
- IFN-γ Production ([3]; dose 10 μg/kg body weight): 2.2 IU/ml
- IFN-γ Production ([3]; dose 100 μg/kg body weight): 2.3 IU/ml
- IFN-γ production relative to that of the control group ([3]; dose 1,000 μg/kg body weight, control 0.4 IU/ml): sevenfold
- IFN-γ Production ([3]; dose 1,000 μg/kg body weight): 2.8 IU/ml
